Source: ChEMBL document CHEMBL3885861, “Open TG-GATES”

Species: Rattus norvegicus
Test: Open TG-GATES - Regimen: Daily Repeat
Type: toxicity, organism-based, Sprague-Dawley
Parameters: regimen Daily Repeat, gender Male, age 6 weeks
Conditions: in vivo, po, 0 mg/kg, route gavage, dose level Control; for APTT / Bas / Eos / Fbg / Hb / Ht / Lym / MCH / MCHC / MCV / Mono / Neu / PT / Plat / RBC / Ret / WBC: tissue Blood; for KIDNEY_L / KIDNEY_R / KIDNEY_TOTAL: tissue Kidney; for LIVER: tissue Liver; for A/G / ALP / ALT / AST / BUN / CRE / Ca / Cl / DBIL / GLC / IP / K / LDH / Na / PL / RALB / TBIL / TC / TG / TP / gamma-GTP: tissue Plasma

In the case of CN1C(=O)CCS(=O)(=O)C1c1ccc(Cl)cc1 (configuration not stated) [CHLORMEZANONE], the TERMINAL_BW (72 h, time 3 day) is reported as 227.8 g, the APTT (72 h, time 3 day) is reported as 15.7 s and the Bas (72 h, time 3 day) is reported as 0%. It also gave an Eos (72 h, time 3 day) of 1%, a Fbg (72 h, time 3 day) of 283.6 mg/dL and a Hb (72 h, time 3 day) of 13.4 g/dL. It also gave a Ht (72 h, time 3 day) of 39.1%, a Lym (72 h, time 3 day) of 77.8% and an MCH (72 h, time 3 day) of 22.1 pg. The MCHC (72 h, time 3 day) was 34.4%, the MCV (72 h, time 3 day) was 64.3 fL and the Mono (72 h, time 3 day) was 3%. The Neu (72 h, time 3 day) was 17.8%, the PT (72 h, time 3 day) was 12 s and the Plat (72 h, time 3 day) was 114.7 x10_4/uL. It also gave an RBC (72 h, time 3 day) of 608.2 x10_4/ul, a Ret (72 h, time 3 day) of 6.7% and a WBC (72 h, time 3 day) of 81.1 x10_2/uL. It also gave a KIDNEY_L (72 h, time 3 day) of 0.9 g, a KIDNEY_R (72 h, time 3 day) of 0.9 g and a KIDNEY_TOTAL (72 h, time 3 day) of 1.8 g. For the same compound, the LIVER (72 h, time 3 day) was 10.6 g, the A/G (72 h, time 3 day) was 0.9 and the ALP (72 h, time 3 day) was 1545.4 IU/L. For the same compound, the ALT (72 h, time 3 day) was 48.4 IU/L, the AST (72 h, time 3 day) was 68.2 IU/L and the BUN (72 h, time 3 day) was 14.6 mg/dL. It also gave a CRE (72 h, time 3 day) of 0.2 mg/dL, a Ca (72 h, time 3 day) of 10.9 mg/dL and a Cl (72 h, time 3 day) of 108.4 meq/L. It also gave a DBIL (72 h, time 3 day) of 0.01 mg/dL, a GLC (72 h, time 3 day) of 193.6 mg/dL and an IP (72 h, time 3 day) of 6.7 mg/dL. For the same compound, the K (72 h, time 3 day) was 4.2 meq/L, the LDH (72 h, time 3 day) was 63.4 IU/L and the Na (72 h, time 3 day) was 143.4 meq/L. It also gave a PL (72 h, time 3 day) of 148.4 mg/dL, an RALB (72 h, time 3 day) of 2.7 g/dL and a TBIL (72 h, time 3 day) of 0.026 mg/dL. For the same compound, the TC (72 h, time 3 day) was 88.8 mg/dL, the TG (72 h, time 3 day) was 90 mg/dL and the TP (72 h, time 3 day) was 5.8 g/dL. For the same compound, the gamma-GTP (72 h, time 3 day) was 1.2 IU/L, the TERMINAL_BW ([…], time 7 day) was 269.2 g and the TERMINAL_BW ([…], time 14 day) was 301.6 g. The TERMINAL_BW ([…], time 28 day) was 393 g, the APTT ([…], time 7 day) was 17.6 s and the Bas ([…], time 7 day) was 0%. The Eos ([…], time 7 day) was 0.8%, the Fbg ([…], time 7 day) was 294.6 mg/dL and the Hb ([…], time 7 day) was 13.9 g/dL. It also gave a Ht ([…], time 7 day) of 41%, a Lym ([…], time 7 day) of 79.4% and an MCH ([…], time 7 day) of 22.1 pg. It also gave an MCHC ([…], time 7 day) of 33.9%, an MCV ([…], time 7 day) of 65.3 fL and a Mono ([…], time 7 day) of 2.4%. It also gave a Neu ([…], time 7 day) of 16.6%, a PT ([…], time 7 day) of 11.9 s and a Plat ([…], time 7 day) of 113.1 x10_4/uL. It also gave an RBC ([…], time 7 day) of 627.6 x10_4/ul, a Ret ([…], time 7 day) of 6.5% and a WBC ([…], time 7 day) of 91.2 x10_2/uL. The APTT ([…], time 14 day) was 16.9 s, the Bas ([…], time 14 day) was 0% and the Eos ([…], time 14 day) was 1%. The Fbg ([…], time 14 day) was 306.8 mg/dL, the Hb ([…], time 14 day) was 14.5 g/dL and the Ht ([…], time 14 day) was 41.2%. It also gave a Lym ([…], time 14 day) of 76.2%, an MCH ([…], time 14 day) of 20.7 pg and an MCHC ([…], time 14 day) of 35.3%. It also gave an MCV ([…], time 14 day) of 58.8 fL, a Mono ([…], time 14 day) of 2% and a Neu ([…], time 14 day) of 20.4%. The PT ([…], time 14 day) was 11.8 s, the Plat ([…], time 14 day) was 123 x10_4/uL and the RBC ([…], time 14 day) was 701 x10_4/ul. The Ret ([…], time 14 day) was 3.5%, the WBC ([…], time 14 day) was 70.8 x10_2/uL and the APTT ([…], time 28 day) was 17.9 s. The Bas ([…], time 28 day) was 0%, the Eos ([…], time 28 day) was 1% and the Fbg ([…], time 28 day) was 293.6 mg/dL. The Hb ([…], time 28 day) was 15 g/dL, the Ht ([…], time 28 day) was 42.2% and the Lym ([…], time 28 day) was 75.4%. For the same compound, the MCH ([…], time 28 day) was 20.2 pg, the MCHC ([…], time 28 day) was 35.5% and the MCV ([…], time 28 day) was 56.8 fL. The Mono ([…], time 28 day) was 2.4%, the Neu ([…], time 28 day) was 20.6% and the PT ([…], time 28 day) was 11.8 s. The Plat ([…], time 28 day) was 99.4 x10_4/uL, the RBC ([…], time 28 day) was 744.8 x10_4/ul and the Ret ([…], time 28 day) was 2.6%. For the same compound, the WBC ([…], time 28 day) was 82.8 x10_2/uL, the KIDNEY_L ([…], time 7 day) was 1 g and the KIDNEY_R ([…], time 7 day) was 1 g. It also gave a KIDNEY_TOTAL ([…], time 7 day) of 2.1 g, a KIDNEY_L ([…], time 14 day) of 1.2 g and a KIDNEY_R ([…], time 14 day) of 1.1 g. For the same compound, the KIDNEY_TOTAL ([…], time 14 day) was 2.3 g, the KIDNEY_L ([…], time 28 day) was 1.4 g and the KIDNEY_R ([…], time 28 day) was 1.3 g. For the same compound, the KIDNEY_TOTAL ([…], time 28 day) was 2.7 g, the LIVER ([…], time 7 day) was 13 g and the LIVER ([…], time 14 day) was 12.6 g. The LIVER ([…], time 28 day) was 16 g, the A/G ([…], time 7 day) was 0.9 and the ALP ([…], time 7 day) was 1745 IU/L. It also gave an ALT ([…], time 7 day) of 44 IU/L, an AST ([…], time 7 day) of 68.2 IU/L and a BUN ([…], time 7 day) of 16.6 mg/dL. The CRE ([…], time 7 day) was 0.2 mg/dL, the Ca ([…], time 7 day) was 11.6 mg/dL and the Cl ([…], time 7 day) was 107.8 meq/L. For the same compound, the DBIL ([…], time 7 day) was 0.016 mg/dL, the GLC ([…], time 7 day) was 181.4 mg/dL and the IP ([…], time 7 day) was 6.9 mg/dL. The K ([…], time 7 day) was 4.3 meq/L, the LDH ([…], time 7 day) was 89.8 IU/L and the Na ([…], time 7 day) was 144 meq/L. The PL ([…], time 7 day) was 152 mg/dL, the RALB ([…], time 7 day) was 2.8 g/dL and the TBIL ([…], time 7 day) was 0.034 mg/dL. For the same compound, the TC ([…], time 7 day) was 82.6 mg/dL, the TG ([…], time 7 day) was 121.6 mg/dL and the TP ([…], time 7 day) was 6 g/dL. For the same compound, the gamma-GTP ([…], time 7 day) was 1 IU/L, the A/G ([…], time 14 day) was 0.8 and the ALP ([…], time 14 day) was 1484.4 IU/L. For the same compound, the ALT ([…], time 14 day) was 48 IU/L, the AST ([…], time 14 day) was 63.8 IU/L and the BUN ([…], time 14 day) was 14.4 mg/dL. It also gave a CRE ([…], time 14 day) of 0.2 mg/dL, a Ca ([…], time 14 day) of 11.2 mg/dL and a Cl ([…], time 14 day) of 107.8 meq/L. The DBIL ([…], time 14 day) was 0.008 mg/dL, the GLC ([…], time 14 day) was 191.6 mg/dL and the IP ([…], time 14 day) was 6.3 mg/dL. It also gave a K ([…], time 14 day) of 4 meq/L, an LDH ([…], time 14 day) of 47 IU/L and a Na ([…], time 14 day) of 143.6 meq/L. For the same compound, the PL ([…], time 14 day) was 136.4 mg/dL, the RALB ([…], time 14 day) was 2.8 g/dL and the TBIL ([…], time 14 day) was 0.064 mg/dL. It also gave a TC ([…], time 14 day) of 70.8 mg/dL, a TG ([…], time 14 day) of 74.8 mg/dL and a TP ([…], time 14 day) of 6.1 g/dL. The gamma-GTP ([…], time 14 day) was 1 IU/L, the A/G ([…], time 28 day) was 0.8 and the ALP ([…], time 28 day) was 1035.2 IU/L. It also gave an ALT ([…], time 28 day) of 45.6 IU/L, an AST ([…], time 28 day) of 62.8 IU/L and a BUN ([…], time 28 day) of 14 mg/dL. The CRE ([…], time 28 day) was 0.3 mg/dL, the Ca ([…], time 28 day) was 10.8 mg/dL and the Cl ([…], time 28 day) was 106.2 meq/L. The DBIL ([…], time 28 day) was 0.006 mg/dL, the GLC ([…], time 28 day) was 183.2 mg/dL and the IP ([…], time 28 day) was 6 mg/dL. The K ([…], time 28 day) was 4 meq/L, the LDH ([…], time 28 day) was 57 IU/L and the Na ([…], time 28 day) was 142.4 meq/L. It also gave a PL ([…], time 28 day) of 143.6 mg/dL, an RALB ([…], time 28 day) of 2.8 g/dL and a TBIL ([…], time 28 day) of 0.062 mg/dL. For the same compound, the TC ([…], time 28 day) was 74.8 mg/dL, the TG ([…], time 28 day) was 88 mg/dL and the TP ([…], time 28 day) was 6.3 g/dL. For the same compound, the gamma-GTP ([…], time 28 day) was 1 IU/L.
